Results published in patent US20250136606A1, “MODULATORS OF TRPML, THEIR COMPOSITIONS AND METHODS OF USE” (Caraway Therapeutics, Inc., priority 2021, published 2025).

Legend:
Assay type in all cases: cell-based
Details in all cases: fluorescent calcium assay
TRPML3 = target: T1, TRPML3 (Homo sapiens, UniProt Q8TDD5); assay: Fluorescent TRPML3 assay (performed as for TRPML1, substituting the TRPML3 subtype)
T1 construct: expressed in transfected cells
T1 sequence (Q8TDD5 1-553): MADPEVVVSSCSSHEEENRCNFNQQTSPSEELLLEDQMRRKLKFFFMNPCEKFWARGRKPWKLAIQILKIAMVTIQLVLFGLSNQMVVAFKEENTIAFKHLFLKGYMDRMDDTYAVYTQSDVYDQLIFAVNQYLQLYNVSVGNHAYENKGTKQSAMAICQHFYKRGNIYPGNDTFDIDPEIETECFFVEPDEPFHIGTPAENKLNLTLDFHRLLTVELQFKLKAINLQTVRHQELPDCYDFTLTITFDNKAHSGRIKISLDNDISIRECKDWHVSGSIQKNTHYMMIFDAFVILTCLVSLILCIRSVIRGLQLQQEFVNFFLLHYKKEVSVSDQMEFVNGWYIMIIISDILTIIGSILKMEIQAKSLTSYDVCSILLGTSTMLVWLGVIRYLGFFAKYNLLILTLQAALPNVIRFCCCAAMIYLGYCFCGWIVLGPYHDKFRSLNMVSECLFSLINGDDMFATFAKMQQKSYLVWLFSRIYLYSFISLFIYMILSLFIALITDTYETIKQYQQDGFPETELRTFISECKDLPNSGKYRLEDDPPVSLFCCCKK
Procedure, shortened: (§1)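 Doxycycline-induced (0.5 ug/mL) HEK-293 Trex cells stably expressing surface-directed mutant channel were loaded with 1 micromolar Fluo4-AM, resuspended in Ringer's with 10 mM calcium and added to compound plates. Fluorescence (ex 480, em 540 nm) gave percent activity versus on-plate controls; EC50 by non-linear regression.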

TRPML1 = TRPML1 (Homo sapiens, UniProt Q9GZU1); assay: Fluorescent TRPML1 assay (Fluo4-AM calcium fluorescence in doxycycline-induced HEK-293 Trex cells)
Procedure, shortened: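 HEK-293 Trex cells stably expressing surface-directed mutant human TRPML1, induced with 0.5 µg/mL doxycycline overnight, were loaded with 1 µM Fluo4-AM and added to compound (6 nM–20 µM final, half-log steps, triplicate) in Ringer's with 10 mM calcium. Fluorescence ex 480/em 540; EC50 by non-linear regression versus plate controls.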

TRPML2 = target: T2, TRPML2 (Homo sapiens, UniProt Q8IZK6); assay: Fluorescent TRPML2 assay (performed as for TRPML1, substituting the TRPML2 subtype)
T2 construct: expressed in transfected cells
T2 sequence (Q8IZK6 1-566): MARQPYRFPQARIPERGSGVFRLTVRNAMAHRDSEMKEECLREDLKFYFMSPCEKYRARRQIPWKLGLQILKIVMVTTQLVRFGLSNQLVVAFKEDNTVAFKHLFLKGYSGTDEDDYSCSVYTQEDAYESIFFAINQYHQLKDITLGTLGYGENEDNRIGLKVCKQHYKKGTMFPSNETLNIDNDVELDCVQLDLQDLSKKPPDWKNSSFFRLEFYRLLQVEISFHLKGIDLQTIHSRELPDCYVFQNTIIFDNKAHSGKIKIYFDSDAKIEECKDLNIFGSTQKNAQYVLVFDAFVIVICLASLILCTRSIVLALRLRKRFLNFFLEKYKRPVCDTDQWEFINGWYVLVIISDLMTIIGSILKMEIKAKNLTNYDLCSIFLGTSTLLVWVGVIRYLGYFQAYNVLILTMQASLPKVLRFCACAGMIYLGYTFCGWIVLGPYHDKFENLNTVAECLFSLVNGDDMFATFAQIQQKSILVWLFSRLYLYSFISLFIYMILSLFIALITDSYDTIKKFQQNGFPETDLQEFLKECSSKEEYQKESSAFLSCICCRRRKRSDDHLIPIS
Procedure, shortened: as §1

Sequence of TRPML1 (Q9GZU1 whole entry L15A/L16A/L577A/L578A, form open): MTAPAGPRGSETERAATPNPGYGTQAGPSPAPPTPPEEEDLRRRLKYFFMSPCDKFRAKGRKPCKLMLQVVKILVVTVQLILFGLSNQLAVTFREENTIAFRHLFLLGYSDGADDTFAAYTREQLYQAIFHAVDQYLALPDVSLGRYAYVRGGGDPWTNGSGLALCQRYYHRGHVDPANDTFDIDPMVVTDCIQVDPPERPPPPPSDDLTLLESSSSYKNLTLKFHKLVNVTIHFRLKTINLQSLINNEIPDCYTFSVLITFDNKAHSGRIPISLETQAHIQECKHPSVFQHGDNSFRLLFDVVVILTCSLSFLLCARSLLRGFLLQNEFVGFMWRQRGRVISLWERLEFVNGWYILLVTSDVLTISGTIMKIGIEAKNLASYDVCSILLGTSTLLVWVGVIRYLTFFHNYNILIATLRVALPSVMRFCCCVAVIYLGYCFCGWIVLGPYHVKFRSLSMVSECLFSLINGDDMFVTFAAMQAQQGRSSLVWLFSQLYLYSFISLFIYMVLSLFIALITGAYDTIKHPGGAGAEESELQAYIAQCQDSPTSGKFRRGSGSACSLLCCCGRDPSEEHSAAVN

Row | EC50 (TRPML3) [nM] | EC50 (TRPML1) [nM] | EC50 (TRPML2) [nM] | Structure (SMILES)
1 | 100 to 500 | 100 to 500 | 500 to 2000 | Cc1cncc(-n2cc(C3CC3)c3c(N4CCN(C(=O)OC(C)(C)C)C[C@@H]4C)ncnc32)c1 [Compound 150, tert-butyl (S)-4-(5-cyclopropyl-7-(5-methylpyridin-3-yl)-7H-pyrrolo[2,3-d]pyrimidin-4-yl)-3-methylpiperazine-1-carboxylate]
2 | 100 to 500 | 100 to 500 | 100 to 500 | CC(C)(C)OC(=O)N1CCN(c2ncnc3c2c(-c2ccccn2)cn3-c2ccc(F)c(Cl)c2)CC1 [Compound 151, tert-butyl 4-(7-(3-chloro-4-fluorophenyl)-5-(pyridin-2-yl)-7H-pyrrolo[2,3-d]pyrimidin-4-yl)piperazine-1-carboxylate]
3 | 500 to 2000 | 500 to 2000 | > 2000 | CCOC(=O)N1CCN(c2ncnc3c2c(-c2ccccn2)cn3-c2ccc(F)c(Cl)c2)CC1 [Compound 152, ethyl 4-(7-(3-chloro-4-fluorophenyl)-5-(pyridin-2-yl)-7H-pyrrolo[2,3-d]pyrimidin-4-yl)piperazine-1-carboxylate]
4 | < 100 | < 100 | < 100 | C[C@H]1CN(C(=O)OC(C)(C)C)CCN1c1ncnc2c1c(-c1ccccn1)cn2-c1ccc(F)c(Cl)c1 [Compound 154, tert-butyl (S)-4-(7-(3-chloro-4-fluorophenyl)-5-(pyridin-2-yl)-7H-pyrrolo[2,3-d]pyrimidin-4-yl)-3-methylpiperazine-1-carboxylate]
5 | 100 to 500 | 100 to 500 | 500 to 2000 | CCOC(=O)N1CCN(c2ncnc3c2c(-c2ccccn2)cn3-c2ccc(F)c(Cl)c2)[C@@H](C)C1 [Compound 155, ethyl (S)-4-(7-(3-chloro-4-fluorophenyl)-5-(pyridin-2-yl)-7H-pyrrolo[2,3-d]pyrimidin-4-yl)-3-methylpiperazine-1-carboxylate]
6 | < 100 | 100 to 500 | 100 to 500 | CC(C)(C)OC(=O)N1CCN(c2nccc3c2c(C2CC2)cn3-c2ccc(Cl)cc2)CC1 [Compound 156, tert-butyl 4-(1-(4-chlorophenyl)-3-cyclopropyl-1H-pyrrolo[3,2-c]pyridin-4-yl)piperazine-1-carboxylate]
7 | < 100 | 100 to 500 | 100 to 500 | C[C@@H]1CN(C(=O)OC(C)(C)C)CCN1c1ncnc2c1c(C1CCCC1)cn2-c1cccc(Cl)c1 [Compound 157, tert-butyl (R)-4-(7-(3-chlorophenyl)-5-cyclopentyl-7H-pyrrolo[2,3-d]pyrimidin-4-yl)-3-methylpiperazine-1-carboxylate]
8 | < 100 | < 100 | < 100 | C[C@H]1CN(C(=O)OC(C)(C)C)CCN1c1ncnc2c1c(C1CCCC1)cn2-c1cccc(Cl)c1 [Compound 158, tert-Butyl (S)-4-(7-(3-chlorophenyl)-5-cyclopentyl-7H-pyrrolo[2,3-d]pyrimidin-4-yl)-3-methylpiperazine-1-carboxylate]
9 | 100 to 500 | 100 to 500 | 100 to 500 | Cc1ccc(Cl)cc1-n1cc(-c2ccccn2)c2c(N3CCN(C(=O)OC(C)(C)C)CC3C)ncnc21 (stereo not drawn) [Compound 159, tert-butyl 4-(7-(5-chloro-2-methylphenyl)-5-(pyridin-2-yl)-7H-pyrrolo[2,3-d]pyrimidin-4-yl)-3-methylpiperazine-1-carboxylate]
10 | < 100 | 100 to 500 | 100 to 500 | Cc1c(Cl)cccc1-n1cc(-c2ccccn2)c2c(N3CCN(C(=O)OC(C)(C)C)CC3C)ncnc21 (stereo not drawn) [Compound 160, tert-butyl 4-(7-(3-chloro-2-methylphenyl)-5-(pyridin-2-yl)-7H-pyrrolo[2,3-d]pyrimidin-4-yl)-3-methylpiperazine-1-carboxylate]
11 | 100 to 500 | 100 to 500 | 500 to 2000 | Cc1nccnc1-c1cn(-c2cccc(Cl)c2)c2ncnc(N3CCN(C(=O)OC(C)(C)C)CC3C)c12 (stereo not drawn) [Compound 161, tert-butyl 4-(7-(3-chlorophenyl)-5-(3-methylpyrazin-2-yl)-7H-pyrrolo[2,3-d]pyrimidin-4-yl)-3-methylpiperazine-1-carboxylate]
12 | 100 to 500 | 500 to 2000 | 500 to 2000 | Cc1c(Cl)cccc1-n1cc(-c2cnccn2)c2c(N3CCN(C(=O)OC(C)(C)C)CC3C)ncnc21 (stereo not drawn) [Compound 162, tert-butyl 4-(7-(3-chloro-2-methylphenyl)-5-(pyrazin-2-yl)-7H-pyrrolo[2,3-d]pyrimidin-4-yl)-3-methylpiperazine-1-carboxylate]
13 | 100 to 500 | 500 to 2000 | 500 to 2000 | Cc1ccc(Cl)cc1-n1cc(-c2cnccn2)c2c(N3CCN(C(=O)OC(C)(C)C)CC3C)ncnc21 (stereo not drawn) [Compound 163, tert-butyl 4-(7-(5-chloro-2-methylphenyl)-5-(pyrazin-2-yl)-7H-pyrrolo[2,3-d]pyrimidin-4-yl)-3-methylpiperazine-1-carboxylate]
14 | < 100 | < 100 | 100 to 500 | CC1CN(C(=O)OC(C)(C)C)CCN1c1ncnc2c1c(C1CC1)cn2-c1cncc(Cl)c1 (stereo not drawn) [Compound 164, tert-butyl 4-(7-(5-chloropyridin-3-yl)-5-cyclopropyl-7H-pyrrolo[2,3-d]pyrimidin-4-yl)-3-methylpiperazine-1-carboxylate]
15 | 100 to 500 | 100 to 500 | 500 to 2000 | Cc1cncc(-n2cc(C3CC3)c3c(N4C[C@@H](C)N(C(=O)OC(C)(C)C)C[C@@H]4C)ncnc32)c1 [Compound 165, tert-butyl (2R,5S)-4-(5-cyclopropyl-7-(5-methylpyridin-3-yl)-7H-pyrrolo[2,3-d]pyrimidin-4-yl)-2,5-dimethylpiperazine-1-carboxylate]
16 | 100 to 500 | 100 to 500 | 500 to 2000 | CCc1cncc(-n2cc(C3CC3)c3c(N4CCN(C(=O)OC(C)(C)C)CC4)ncnc32)c1 [Compound 166, tert-butyl 4-(5-cyclopropyl-7-(5-ethylpyridin-3-yl)-7H-pyrrolo[2,3-d]pyrimidin-4-yl)piperazine-1-carboxylate]
17 | < 100 | 100 to 500 | 500 to 2000 | C[C@@H]1CN(c2ncnc3c2c(C2CC2)cn3-c2cncc(C(F)(F)F)c2)[C@@H](C)CN1C(=O)OC(C)(C)C [Compound 167, tert-butyl (2R,5S)-4-(5-cyclopropyl-7-(5-(trifluoromethyl)pyridin-3-yl)-7H-pyrrolo[2,3-d]pyrimidin-4-yl)-2,5-dimethylpiperazine-1-carboxylate]
18 | 500 to 2000 | 500 to 2000 | > 2000 | C[C@@H]1CN(c2ncnc3c2c(C2CC2)cn3-c2cccnc2)[C@@H](C)CN1C(=O)OC(C)(C)C [Compound 168, tert-butyl (2R,5S)-4-(5-cyclopropyl-7-(pyridin-3-yl)-7H-pyrrolo[2,3-d]pyrimidin-4-yl)-2,5-dimethylpiperazine-1-carboxylate]
19 | < 100 | < 100 | 500 to 2000 | C[C@@H]1CN(c2ncnc3c2c(-c2ccccc2)cn3-c2cccnc2)[C@@H](C)CN1C(=O)OC(C)(C)C [Compound 169, tert-butyl (2R,5S)-2,5-dimethyl-4-(5-phenyl-7-(pyridin-3-yl)-7H-pyrrolo[2,3-d]pyrimidin-4-yl)piperazine-1-carboxylate]
20 | < 100 | 100 to 500 | 500 to 2000 | C[C@H]1CN(C(=O)OC(C)(C)C)CCN1c1ncnc2c1c(-c1ccccc1)cn2-c1cnn(C)c1 [Compound 170, tert-butyl (S)-3-methyl-4-(7-(1-methyl-1H-pyrazol-4-yl)-5-phenyl-7H-pyrrolo[2,3-d]pyrimidin-4-yl)piperazine-1-carboxylate]
21 | > 2000 | 500 to 2000 | > 2000 | CC(C)(C)OC(=O)N1CCN(c2nccc3c2c(-c2ccccc2F)cn3-c2cncnc2)CC1 [Compound 171, tert-butyl 4-(3-(2-fluorophenyl)-1-(pyrimidin-5-yl)-1H-pyrrolo[3,2-c]pyridin-4-yl)piperazine-1-carboxylate]
